Experimental data reported in US20120208809A1, “9H-PYRROLO[2,3-B: 5,4-C'] DIPYRIDINE AZACARBOLINE DERIVATIVES, PREPARATION THEREOF, AND THERAPEUTIC USE THEREOF” (SANOFI, priority 2009, published 2012).

Columns and labels:
CDK1 = CDK1 (Homo sapiens, UniProt P06493); test: Biochemical results, IC50 CDK1
Pim-3 = biological target: T1, Pim-3 (Homo sapiens, UniProt Q86V86); test: TR-FRET assay of Pim kinase activity (phosphorylation of Bad Ser112), Pim-3; format: biochemical; details: ATP 40 μM, read-out: IC50 Pim3
T1 construct: full-length human recombinant His6-labelled Pim-1, Pim-2 or Pim-3 protein; His6; made in house
Experimental: (§1) In order to determine the inhibition of Pim kinase activity, the compounds of the invention are tested in accordance with a routinely-used in-vitro TR-FRET assay (“Time Resolved-Fluorescence Resonance Energy Transfer”). […] For the assay, the following reagents are used:
(§2) Pim kinase—full-length human recombinant His6-labelled Pim-1, Pim-2 or Pim-3 protein (prepared according to J. Mol. Biol. (2005) 348, 183-193); Bad—full-length human recombinant His6-labelled Bad protein (prepared according to J. Mol. Biol. (2005) 348, 183-193); α-His6-APC—mouse monoclonal antibody conjugated to allophycocyanine SureLight™ directed against the His6 label (Perkin-Elmer, No. AD0059H, Waltham, Mass., United States); α-P˜Bad-Eu—mouse monoclonal antibody (Cell Signaling Technology #9296B, Danvers, Mass., United States) directed against phosphoBad (Ser112) (7E11) labelled on request by Perkin-Elmer with the reagent LANCE™ Eu-W1024.
(§3) The assay is based on the LANCE™ technology from Perkin-Elmer: the Eu-labelled antibody binds to phospho-Ser112 and generates a TR-FRET signal by interaction with the […] antibody directed against His6, bound to the His6 label of Bad. The TR-FRET signal is detected using a SpectraMax M5 plate reader (Molecular Devices) with the following settings: λex=340 nm, λem1=615 nm, λem2=665 nm. The ratio of the fluorescence signal at 665 nm to the fluorescence signal at 615 nm is used as the signal reading for the IC50 (calculations based on the 4-parameter logistic model). The assay is performed in 384-well format; the liquid manipulations are performed using a Beckmann 3000 liquid manipulation station. The test compounds are tested at 10 concentration points in duplicate; the highest concentration of compound is typically equal to 30 μM. The ATP concentration is equal to 40 μM.

Pim-1 = biological target: T2, Pim-1 (Homo sapiens, UniProt P11309); test: TR-FRET assay of Pim kinase activity (phosphorylation of Bad Ser112), Pim-1; format: biochemical; details: ATP 40 μM, read-out: IC50 Pim1
T2 construct: full-length human recombinant His6-labelled Pim-1, Pim-2 or Pim-3 protein; His6; made in house
Experimental: as §1, §2, §3

PLK1 = PLK1 (Homo sapiens, UniProt P53350); test: Biochemical results, IC50 PLK1
Pim-2 = biological target: T3, Pim-2 (Homo sapiens, UniProt Q9P1W9); test: TR-FRET assay of Pim kinase activity (phosphorylation of Bad Ser112), Pim-2; format: biochemical; details: ATP 40 μM, read-out: IC50 Pim2
T3 construct: full-length human recombinant His6-labelled Pim-1, Pim-2 or Pim-3 protein; His6; made in house
Experimental: as §1, §2, §3

Chain of PLK1 (P53350 whole entry, species assumed): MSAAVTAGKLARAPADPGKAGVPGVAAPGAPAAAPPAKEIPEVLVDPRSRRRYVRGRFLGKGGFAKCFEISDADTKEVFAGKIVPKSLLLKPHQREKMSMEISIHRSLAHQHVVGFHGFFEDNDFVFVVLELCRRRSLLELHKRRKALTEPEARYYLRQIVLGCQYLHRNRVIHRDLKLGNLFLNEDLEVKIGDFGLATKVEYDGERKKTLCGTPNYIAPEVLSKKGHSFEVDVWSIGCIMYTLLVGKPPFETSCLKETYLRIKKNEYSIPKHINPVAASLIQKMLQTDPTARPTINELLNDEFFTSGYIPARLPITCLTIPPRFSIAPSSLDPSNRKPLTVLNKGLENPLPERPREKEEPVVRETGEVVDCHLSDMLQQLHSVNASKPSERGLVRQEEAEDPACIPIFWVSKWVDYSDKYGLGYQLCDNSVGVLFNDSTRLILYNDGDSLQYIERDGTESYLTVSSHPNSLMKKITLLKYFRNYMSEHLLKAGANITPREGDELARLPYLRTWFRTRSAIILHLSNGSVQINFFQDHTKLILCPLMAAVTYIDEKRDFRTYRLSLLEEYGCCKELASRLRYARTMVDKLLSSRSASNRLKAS
Chain of CDK1 (P06493 whole entry, species assumed): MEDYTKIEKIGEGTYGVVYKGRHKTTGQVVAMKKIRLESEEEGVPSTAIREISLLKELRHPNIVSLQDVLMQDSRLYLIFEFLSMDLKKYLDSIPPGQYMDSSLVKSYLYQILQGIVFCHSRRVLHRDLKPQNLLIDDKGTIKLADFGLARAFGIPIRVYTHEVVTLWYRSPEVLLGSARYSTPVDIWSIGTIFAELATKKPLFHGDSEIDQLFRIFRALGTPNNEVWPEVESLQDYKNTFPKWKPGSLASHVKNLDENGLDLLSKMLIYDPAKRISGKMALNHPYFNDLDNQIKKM
Chain of CDK1 (P14635 whole entry partner, species assumed): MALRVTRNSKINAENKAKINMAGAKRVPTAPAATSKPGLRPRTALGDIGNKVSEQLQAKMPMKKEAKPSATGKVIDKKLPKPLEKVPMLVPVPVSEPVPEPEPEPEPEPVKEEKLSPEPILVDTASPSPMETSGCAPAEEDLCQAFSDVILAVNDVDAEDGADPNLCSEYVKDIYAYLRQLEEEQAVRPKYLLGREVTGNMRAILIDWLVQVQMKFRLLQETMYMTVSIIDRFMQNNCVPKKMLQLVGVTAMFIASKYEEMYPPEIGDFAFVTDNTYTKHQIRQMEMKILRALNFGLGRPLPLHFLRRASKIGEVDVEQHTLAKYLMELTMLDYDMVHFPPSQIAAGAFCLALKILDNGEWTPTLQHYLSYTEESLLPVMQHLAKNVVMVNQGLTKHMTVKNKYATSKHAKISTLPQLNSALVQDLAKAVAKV
T3 sequence (Q9P1W9 whole entry): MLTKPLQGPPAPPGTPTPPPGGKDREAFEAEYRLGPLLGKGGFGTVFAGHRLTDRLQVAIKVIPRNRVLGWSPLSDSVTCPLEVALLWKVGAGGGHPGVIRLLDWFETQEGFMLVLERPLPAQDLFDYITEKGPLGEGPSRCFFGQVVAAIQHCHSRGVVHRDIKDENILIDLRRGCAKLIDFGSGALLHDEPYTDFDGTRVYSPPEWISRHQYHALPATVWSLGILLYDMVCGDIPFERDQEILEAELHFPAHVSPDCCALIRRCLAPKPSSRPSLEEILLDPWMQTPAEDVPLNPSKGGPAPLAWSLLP
T2 sequence (P11309 whole entry): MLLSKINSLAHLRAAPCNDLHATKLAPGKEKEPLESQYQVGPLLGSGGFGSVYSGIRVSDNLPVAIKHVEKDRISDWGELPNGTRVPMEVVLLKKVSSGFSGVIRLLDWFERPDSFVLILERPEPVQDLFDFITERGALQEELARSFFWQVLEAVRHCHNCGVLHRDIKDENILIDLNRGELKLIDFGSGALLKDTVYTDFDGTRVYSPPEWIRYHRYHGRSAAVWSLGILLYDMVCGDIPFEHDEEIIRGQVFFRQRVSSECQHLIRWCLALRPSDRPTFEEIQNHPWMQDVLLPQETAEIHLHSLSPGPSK

IC50 (CDK1) [nM] | IC50 (Pim-3) [nM] | IC50 (Pim-1) [nM] | IC50 (PLK1) [nM] | IC50 (Pim-2) [nM] | SMILES
100 to 1000 | < 100 | < 100 | 100 to 1000 | 100 to 1000 | CN(C)[C@H]1CCN(C(=O)c2ccc(-c3c(F)cnc4[nH]c5cnc(-c6cccnc6)cc5c34)cc2)C1 [Example 69, [(3S)-3-(dimethylamino)pyrrolidin-1-yl]{4-[3-fluoro-6-(pyridin-3-yl)-9H-pyrrolo[2,3-b:5,4-c′]dipyridin-4-yl]phenyl}methanone]
1000 to 5000 | < 100 | < 100 | 100 to 1000 | 100 to 1000 | CCN1CCCC1CNC(=O)c1ccc(-c2c(F)cnc3[nH]c4cnc(-c5cccnc5)cc4c23)cc1 (centres unmarked) [Example 51, N-[(1-ethylpyrrolidin-2-yl)methyl]-4-[3-fluoro-6-(pyridin-3-yl)-9H-pyrrolo[2,3-b:5,4-c′]dipyridin-4-yl]benzamide]

Second part, the molecule before the results:

SMILES | IC50 (CDK1) [nM] | IC50 (Pim-3) [nM] | IC50 (Pim-1) [nM] | IC50 (PLK1) [nM] | IC50 (Pim-2) [nM]
CCN(CC)CCN(C)C(=O)c1ccc(-c2c(F)cnc3[nH]c4cnc(-c5cccnc5)cc4c23)cc1 [Example 71, N-[2-(diethylamino)ethyl]-4-[3-fluoro-6-(pyridin-3-yl)-9H-pyrrolo[2,3-b:5,4-c′]dipyridin-4-yl]-N-methylbenzamide] | 1000 to 5000 | < 100 | < 100 | 1000 to 5000 | 1000 to 5000
O=C(NCCNc1ccccn1)c1ccc(-c2c(F)cnc3[nH]c4cnc(-c5cccnc5)cc4c23)cc1 [Example 78, 4-[3-fluoro-6-(pyridin-3-yl)-9H-pyrrolo[2,3-b:5,4-c′]dipyridin-4-yl]-N-[2-(pyridin-2-ylamino)ethyl]benzamide] | 100 to 1000 | < 100 | < 100 | < 100 | 100 to 1000
O=C(NCCCN1CCCC1=O)c1ccc(-c2c(F)cnc3[nH]c4cnc(-c5cccnc5)cc4c23)cc1 [Example 49, 4-[3-fiuoro-6-(pyridin-3-yl)-9H-pyrrolo[2,3-b:5,4-c′]dipyridin-4-yl]-N-[3-(2-oxopyrrolidin-1-yl)propyl]benzamide] | 1000 to 5000 | 100 to 1000 | 100 to 1000 | 100 to 1000 | > 5000
Cc1n[nH]cc1CNC(=O)c1ccc(-c2c(F)cnc3[nH]c4cnc(-c5cccnc5)cc4c23)cc1 [Example 73, 4-[3-fluoro-6-(pyridin-3-yl)-9H-pyrrolo[2,3-b:5,4-c′]dipyridin-4-yl]-N-[(3-methyl-1H-pyrazol-4-yl)methyl]benzamide] | 100 to 1000 | < 100 | < 100 | < 100 | 100 to 1000
CC(C)(CNC(=O)c1ccc(-c2c(F)cnc3[nH]c4cnc(-c5cccnc5)cc4c23)cc1)N1CCCC1 [Example 58, 4-[3-fluoro-6-(pyridin-3-yl)-9H-pyrrolo[2,3-b:5,4-c′]dipyridin-4-yl]-N-[2-methyl-2-(pyrrolidin-1-yl)propyl]benzamide] | 1000 to 5000 | < 100 | < 100 | 100 to 1000 | 100 to 1000
